Data reported in patent US10858357B2, “Water-soluble myosin 2 inhibitors for the treatment of neurological, neuropathic or psychiatric diseases” (PARIS SCIENCES ET LETTRES-QUARTIER LATIN, priority 2016, dated 2020).

Tests used:
zebrafish heart muscle = test: Zebrafish heart rate and amplitude of heart muscle contraction; format: in vivo, zebrafish (Danio rerio); settings: 20 μM, within three hours, 6 dpf zebrafish
Method: For the fast escape response experiments, 6 dpf larvae were placed in 50 μl drops on a plastic plate. They were treated with 0, 2, 5, 10 or 20 μM of neurelaxin-A. To evoke C-start response, acoustic stimuli were applied according to the following protocol: 10 taps were carried out with 1 minute intervals every hour for 4 hours. The force of tapping was standardized. Images were recorded with Ximea Camera (MQ003MG-CM) at 500 fps for 2 s. Data were analyzed by Flote software version 2.1 and maximal angular velocity parameters of C-start reflex were quantified. For the experiments investigating the effect of the inhibitor on the heart muscle of zebrafish, 6 dpf larvae were embedded in 1% agarose and kept in E3 in the presence of 20 μM neurelaxin-A. Videos were taken by a camera at 15.1 fps before and after inhibitor treatment every hour for 3 hours.
Transgenic Tg(−8.0cldnb:lynEGFP)^zf106 (cldnb:gfp) (Haas, P. & Gilmour, D., Developmental Cell 10, 2006, pp 673-680) zebrafish (Danio rerio) were maintained in the animal facility of Eötvös Loránd University. For the experiments investigating the skeletal and heart muscle of zebrafish, 6 dpf embryos were used. […]
Heart beating and the amplitude of heart muscle contraction were monitored before and after the addition of 20 μM of neurelaxin-A to the zebrafish, imaging the same embryos every hour for three hours.

zebrafish embryos = test: Zebrafish embryo toxicity test; format: in vivo, zebrafish (Danio rerio)
Method: Transgenic Tg(−8.0cldnb:lynEGFP)^zf106 (cldnb:gfp) (Haas, P. & Gilmour, D., Developmental Cell 10, 2006, pp 673-680) zebrafish (Danio rerio) were maintained in the animal facility of Eötvös Loránd University. For the experiments investigating the skeletal and heart muscle of zebrafish, 6 dpf embryos were used. For cytotoxicity assays, 2 dpf embryos were dechorionated and placed in E3 medium (5 mM NaCl, 0.33 mM MgCl2, 0.33 mM CaCl2 and 0.17 mM KCl) complemented with the inhibitor in the indicated concentrations.578 PCT
In order to test the cytoxicity of neurelaxin-A in a live animal model, zebrafish embryos were treated with the inhibitor at different concentrations and their development was followed for 72 hours (FIG. 4d).

[1] = Photostability under 480±10 nm irradiation; format: physicochemical; settings: 5 μM, 480±10 nm for 0, 5, 10 and 15 minutes
Method: Fluorescence emission spectra (λexc=350 nm) were recorded in assay buffer containing 0.1% DMSO applying the inhibitors at 5 μM concentrations. The photoconversion measurements were carried out using 5 μM neurelaxin-A in assay buffer and irradiating the samples at 480±10 nm for 0, 5, 10 and 15 minutes using a Fluorescence Spectrometer (F900, Edinburgh Instruments) equipped with a 450 W Xenon Lamp. Their absorbance spectra were measured at each time point.
Neurelaxin-A's photostability was measured by irradiating the compound in assay buffer at 480±10 nm for 0, 5, 10 and 15 minutes and recorded the absorption spectra afterwards (FIG. 2C).

[2] = test system: EGFP-α-tubulin H2B-mCherry HeLa Kyoto cells; test: HeLa cell toxicity, 12-hour confocal time-lapse imaging; format: cell-based, human; settings: 50 μM, 12 hours imaging
Method: For phototoxicity experiments, confocal time-lapse imaging of HeLa Kyoto H2B-mCherry eGFP-α-tubulin cells for 12 hours was performed in DMEM further supplemented with 25 mM HEPES in order to achieve CO2 independent media. Confocal time-lapse imaging was performed on a Zeiss LSM 710 using a Plan Apo 20×/0.8 objective, with the following parameters: 2% laser intensity at λexc=488 nm, 3% laser intensity at λexc=543 nm, 1.2× zoom, average 4, line step 1, 1000×1000 pixels, 0.35 μm pixel size, 0.65 μs dwell time, 3 slice/z-stack with 7 μm between slices at every 10 minutes.
To test the cytotoxicity of neurelaxin-A in live-cell fluorescence microscopy, time-lapse EGFP-α-tubulin H2B-mCherry labeled HeLa Kyoto cells were imaged in a confocal microscope (FIG. 4a).
Cells were treated with 50 μM neurelaxin-A and imaged for 12 hours applying 3 z-sections every 10 minutes.

[3] = test system: embryonic rat hippocampal neurons; test: Cannabinoid (WIN55,212-2)-induced growth cone retraction; format: cell-based; settings: 100 μM pre-treatment, WIN55,212-2 100 nM
Method: Embryonic rat hippocampal neurons were isolated from 18-day-old embryo and cultured on poly-D-lysine coated dish in Neurobasal medium complemented with B27, FBS and glutamax for 6 days and transfected by using Lipofectamine 2000 with DNA codig for LifeAct-mCherry and CB1R-CFP.
The growth of neurites were monitored by fluorescent miscroscopy after the addition of different pre-treatment doses of neurelaxin-A at 20 minutes, followed 20 minutes later by the addition of 100 nM of the synthetic cannabinoid WIN55,212-2 as described in Roland et al, 2014.

HeLa cells = test: HeLa wound healing (motility) assay; format: cell-based, human; settings: 20 μM, after 24 h, uncoated glass; control 30.6±5.4%
Method: For wound healing assays, 200 μl of HeLa cells were plated on 35 mm borosilicate glass imaging dishes at 300,000 cells/ml concentrations and incubated for 24 hours. Prior to wounding, cells were incubated in 20 μM of neurelaxin-A for an hour. After one hour, scratches were made with pipette tips in monolayer cultures and the motility of cells for occupying the wound was monitored for 24 hours with a Foculus Digital Camera (IEEE1394). Analysis of cell motility was carried out by ImageJ, by measuring the distance between two lines fitted on the two sides of the approaching cell edges created by the pipette tips.
To test the effect of neurelaxin-A on the motility of HeLa cells on uncoated glass surface, wound-healing assays were carried out in the absence and in the presence of 20 μM concentrations of the inhibitor.
After 24 h, the percent of migration was measured for each sample. The control corresponds to a sample in the absence of inhibitor.

spinal cord injury = test: Spinal cord complete section, BBB locomotor scoring; format: in vivo, rat; settings: 10 mM in 10% DMSO/90% aCSF at injury site; from day 7; non-treated stays under 3
Method: In this experiment, a complete section of the spinal cord on animals was carried out. Then, neurelaxin A administration was carried out at the injury site, 5-10 min after the injury was performed. This neurelaxin-A administration was carried out via a diluted solution of 10 mM of neurelaxin A in a 10% DMSO/90% aCSF (artificial cerebrospinal fluid) solution, leading to an orange bright precipitate that is slowly soluble into the injury site. Finally, a BBB (Basso, Beattie and Bresnahan) analysis is performed in order to study the sequence of functional locomotor recovery patterns. The scale (0-21) represents sequential recovery stages and categorizes combinations of rat joint movement, hindlimb movements, stepping, forelimb and hind limbcoordination, trunk position and stability, paw placement and tail position.
According to this test, any drug treatment which may increase the BBB scores may be considered neuroprotective in animal models.
In this experiment, treated animals (n=3) were undistinguishable from non-treated animals (n=3). The BBB scoring scale ranges from 0 to 21.

With `Cc1ccc2c(c1)C(=O)C1(O)CCN(c3ccc(N)cc3)C1=N2` (centres unmarked) [Neurelaxin-A, 1-(4-aminophenyl)-3a-hydroxy-6-methyl-3,3a-dihydro-1H-pyrrolo[2,3-b]quinolin-4(2H)-one] the “amplitude of heart muscle contraction” value (zebrafish heart muscle) was “dropped drastically”, the “visible damage in zebrafish embryos” value (zebrafish embryos; 72 hours) was “does not cause any visible damage” and the “signs of cytotoxicity in zebrafish embryos” value (zebrafish embryos; after 40 hours, even at high concentrations) was “did not show any signs of cytotoxicity”. The “photostability: absorption spectrum after irradiation” value [1] was “has not been altered”, the “signs of toxicity in HeLa Kyoto cells” value [2] was “did not show any signs of toxicity” and the “cannabinoid-induced retraction of axonal growth cones” value [3] was “significantly prevented”. For the same molecule, the “relative migration of HeLa cells (100% = total diameter of the wound)” value (HeLa cells) was 62.6±3.6% and the BBB scoring (spinal cord injury) was “significant increasing of BBB scoring”.
